Reference: US6225307A, “Viral treatment” (priority 2000, dated 2001)

Test system: HIV-1 cell line, CEMIIIB
Assay: Long term in vitro study, CEMIIIB cells, reverse transcriptase analysis
Assay type: cell-based
Parameters: Reverse transcriptase data: unit not given here
Experimental: A microtiter-based reveres transcriptase (RT) reaction is utilized (Buckheit et al (1991) AIDS Research and Human Retroviruses 7:295-302). Tritiated thymidine triphosphate (NEN)(TTP) is resuspended in distilled water at 5 Ci/ml. Poly rA and oligo dT are prepared as a stock solution which is kept at -20° C. The RT reaction buffer is prepared fresh on a daily basis and consists of 125 μl 1M EGTA, 125 μl water, 125 μl Triton X-100, 50 μl Tris (pH 7.4), 50 μl MDDT, and 40 μl 1M MgCl2. These three solutions are mixed together in a ratio of 1 part TTP, 2.5 parts poly rA:oligo dT, 2.5 parts reaction buffer and 4 parts distilled water. Ten microliters of this reaction mixture is placed in a round bottom microtiter place and 15 μl of virus containing supernatant is added and mixed. The plate is incubated at 37° C. and incubated for 60 minutes. Following reaction, the reaction volume is spotted onto filter mats, washed 6 times for 5 minutes each in a 5% sodium phosphate buffer, 2 times for 1 minute each in distilled water, 2 times for 1 minute each in 70% ethanol, and then dried. The dried filter mat is placed in a plastic sample bag, Betaplate scintillation fluid is added and the bag is heat sealed. Incorporated radioactivity is quantified utilizing a Wallac Microbeta scintillation counter.
Acute infection of most established human cell lines with HIV- I results in the eventual establishment of a constitutive virus-producing chronically infected cell line. The cells can be passaged for long periods of time in culture without loss of virus production. These cells may be utilized to evaluate the effects of anti-HIV compounds on syncytium formation or to evaluate the effects of anti-HIV compounds on levels of virus production from these cells. […] Each of the cells contains an integrated HIV genome or provirus. Chronically infected CEM, H9 and U937 cell lines have been prepared and cultured by Southern Research Institute, Frederick Md. and are available from them.
CEM-SS cells chronically infected with HIV isolate, for example SKI (CEM-SKI) are cultured in RPM1640 tissue culture medium supplemented with 10% fetal bovine serum and antibiotics. Selection is performed by culturing the cells in the presence of the compound to be tested in T25 flasks. CEM-SKI or other infected cells with no added drug are used as the control cells. Cells are allowed to grow to a density of approximately 1×10^6 cells/ml and are then passaged at a 1:10 dilution. After a period of time, usually one week intervals of drug treatment, cells are evaluated to determine if the inhibitory activity of the compound has been affected by treatment of the cells with either compounds. The drug concentration in the flask is then increased two-fold and the cells maintained as above.
The cell populations contain integrated copies of the HIV genome and constitutively produce HIV at relatively high levels or are latently infected and only produce virus after stimulation with phorbol esters, tumor necrosis factor or IL6(U1 and ACH2). Reductions in virus products were observed when quantifying supernatant reverse transcriptase activity,
Toxicity Values are measured by XTT and activity of the compound in the tests is measured by a Reverse Transcriptase analysis.
A long term in vitro study of 3-hexahydro-3-ethyl-1-methyl-2-oxo-1H-azepin-3-yl)phenyl ester of 4-chlorophenyl carbamic acid against an HIV-1 cell line, CEMIIIB was conducted at three different levels. The results with CEIIIB cells were reported at weekly intervals. The CEMIIIB is a […] of the CEMSS cell line and is a chronic HIV cell line.

For `CCC1(c2cccc(OC(=O)Nc3ccc(Cl)cc3)c2)CCCCN(C)C1=O` (stereo not shown) [(4-chlorophenyl)-carbamic acid, 3-(hexahydro-3-ethyl-1-methyl-2-oxo-1H-azepin-3-yl) 2 phenyl ester], the “Reverse transcriptase data, continued test” value was “data remained consistent”, the Reverse transcriptase data (7 μg/ml, Day 4) was 1643 and the Reverse transcriptase data (7 μg/ml, Day 11) was 1294. It also gave a Reverse transcriptase data (7 μg/ml, Day 18) of 1521, a Reverse transcriptase data (7 μg/ml, Day 25) of 1725 and a Reverse transcriptase data (7 μg/ml, Day 32) of 1239. For the same compound, the Reverse transcriptase data (7 μg/ml, Day 39) was 1341, the Reverse transcriptase data (7 μg/ml, Day 46) was 1694 and the Reverse transcriptase data (7 μg/ml, Day 53) was 1287. For the same compound, the Reverse transcriptase data (7 μg/ml, Day 60) was 1631, the Reverse transcriptase data (7 μg/ml, Day 67) was 1245 and the Reverse transcriptase data (7 μg/ml, Day 71) was 1483. The Reverse transcriptase data (7 μg/ml, Day 74) was 1502, the Reverse transcriptase data (7 μg/ml, Day 88) was 7383 and the Reverse transcriptase data (7 μg/ml, Day 95) was 5512. The Reverse transcriptase data (7 μg/ml, Day 102) was 8512, the Reverse transcriptase data (7 μg/ml, Day 109) was 58104 and the Reverse transcriptase data (15 μg/ml, Day 4) was 1526. It also gave a Reverse transcriptase data (15 μg/ml, Day 11) of 1168, a Reverse transcriptase data (15 μg/ml, Day 18) of 1241 and a Reverse transcriptase data (15 μg/ml, Day 25) of 1361. The Reverse transcriptase data (15 μg/ml, Day 32) was 1168, the Reverse transcriptase data (15 μg/ml, Day 39) was 1162 and the Reverse transcriptase data (15 μg/ml, Day 46) was 1084. For the same compound, the Reverse transcriptase data (15 μg/ml, Day 53) was 902, the Reverse transcriptase data (15 μg/ml, Day 60) was 1310 and the Reverse transcriptase data (15 μg/ml, Day 67) was 1093. It also gave a Reverse transcriptase data (15 μg/ml, Day 71) of 1056, a Reverse transcriptase data (15 μg/ml, Day 74) of 763 and a Reverse transcriptase data (15 μg/ml, Day 88) of 4415. It also gave a Reverse transcriptase data (15 μg/ml, Day 95) of 3205, a Reverse transcriptase data (15 μg/ml, Day 102) of 6902 and a Reverse transcriptase data (15 μg/ml, Day 109) of 60170. The Reverse transcriptase data (30 μg/ml, Day 4) was 602, the Reverse transcriptase data (30 μg/ml, Day 11) was 265 and the Reverse transcriptase data (30 μg/ml, Day 18) was 581. It also gave a Reverse transcriptase data (30 μg/ml, Day 25) of 496, a Reverse transcriptase data (30 μg/ml, Day 32) of 268 and a Reverse transcriptase data (30 μg/ml, Day 39) of 381. The Reverse transcriptase data (30 μg/ml, Day 46) was 562, the Reverse transcriptase data (30 μg/ml, Day 53) was 308 and the Reverse transcriptase data (30 μg/ml, Day 60) was 241. For the same compound, the Reverse transcriptase data (30 μg/ml, Day 67) was 301, the Reverse transcriptase data (30 μg/ml, Day 71) was 321 and the Reverse transcriptase data (30 μg/ml, Day 74) was 202. It also gave a Reverse transcriptase data (30 μg/ml, Day 88) of 370, a Reverse transcriptase data (30 μg/ml, Day 95) of 299 and a Reverse transcriptase data (30 μg/ml, Day 102) of 928. It also gave a Reverse transcriptase data (30 μg/ml, Day 109) of 2019.
